Measurements reported in US20070149456A1, “Epithelial sodium channel inhibiting agents and uses therefor” (University of Pittsburgh, priority 2005, published 2007).
pIC50: −log10 of the molar value. “Also recorded” adds a separate entry of the source.

What was measured:
[1] = molecular target: T1, endogenous ENaC in mpkCCDc14 cells (Mus musculus, UniProt Q61180+Q9WU38+Q9WU39); conditions: mouse CCD cells; stated jointly with human airway; Carattino 2006; read-out: IC50, inhibition of ENaC activity; cited from earlier work
T1 construct: endogenous ENaC in a mouse cortical collecting duct (mpkCCDc14) cell line; endogenous in cells; host or cells: mpkCCDc14 mouse cortical collecting duct cell line
T1 sequence (Q61180 1-205, one chain of several): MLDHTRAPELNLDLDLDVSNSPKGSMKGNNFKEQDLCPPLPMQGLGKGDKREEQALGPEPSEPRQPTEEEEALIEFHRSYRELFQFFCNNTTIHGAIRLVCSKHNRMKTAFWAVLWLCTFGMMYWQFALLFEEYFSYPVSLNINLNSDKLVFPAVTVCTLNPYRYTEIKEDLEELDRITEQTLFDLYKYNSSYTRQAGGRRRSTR

[2] = molecular target: T2, endogenous ENaC in HAE cells (Homo sapiens, UniProt P37088+P51168+P51170); conditions: human airway cells; stated jointly with mouse CCD; Carattino 2006; read-out: IC50, inhibition of ENaC activity; cited from earlier work
T2 construct: endogenous in cells; host or cells: primary human airway (bronchial) epithelial cells from transplant or donor lungs
T2 sequence (P37088 1-178): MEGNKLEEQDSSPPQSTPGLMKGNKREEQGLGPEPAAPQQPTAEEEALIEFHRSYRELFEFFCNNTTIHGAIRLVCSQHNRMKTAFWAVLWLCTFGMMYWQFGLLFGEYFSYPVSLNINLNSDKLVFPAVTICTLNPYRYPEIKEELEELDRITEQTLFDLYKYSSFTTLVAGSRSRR
T2 sequence (P37088 205-669): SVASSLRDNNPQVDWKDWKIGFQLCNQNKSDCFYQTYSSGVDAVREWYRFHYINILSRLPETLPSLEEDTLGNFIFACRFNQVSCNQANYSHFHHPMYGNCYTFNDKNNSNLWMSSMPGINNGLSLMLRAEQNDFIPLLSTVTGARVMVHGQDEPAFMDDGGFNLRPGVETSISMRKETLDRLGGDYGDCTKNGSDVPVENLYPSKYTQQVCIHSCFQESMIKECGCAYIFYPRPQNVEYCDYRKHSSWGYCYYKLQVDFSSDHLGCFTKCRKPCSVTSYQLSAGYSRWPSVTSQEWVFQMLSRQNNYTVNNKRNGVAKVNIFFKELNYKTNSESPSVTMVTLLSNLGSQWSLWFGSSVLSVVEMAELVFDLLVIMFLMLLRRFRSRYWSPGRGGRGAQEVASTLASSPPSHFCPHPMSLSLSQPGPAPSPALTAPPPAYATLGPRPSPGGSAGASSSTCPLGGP
T2 sequence (P51168 whole entry): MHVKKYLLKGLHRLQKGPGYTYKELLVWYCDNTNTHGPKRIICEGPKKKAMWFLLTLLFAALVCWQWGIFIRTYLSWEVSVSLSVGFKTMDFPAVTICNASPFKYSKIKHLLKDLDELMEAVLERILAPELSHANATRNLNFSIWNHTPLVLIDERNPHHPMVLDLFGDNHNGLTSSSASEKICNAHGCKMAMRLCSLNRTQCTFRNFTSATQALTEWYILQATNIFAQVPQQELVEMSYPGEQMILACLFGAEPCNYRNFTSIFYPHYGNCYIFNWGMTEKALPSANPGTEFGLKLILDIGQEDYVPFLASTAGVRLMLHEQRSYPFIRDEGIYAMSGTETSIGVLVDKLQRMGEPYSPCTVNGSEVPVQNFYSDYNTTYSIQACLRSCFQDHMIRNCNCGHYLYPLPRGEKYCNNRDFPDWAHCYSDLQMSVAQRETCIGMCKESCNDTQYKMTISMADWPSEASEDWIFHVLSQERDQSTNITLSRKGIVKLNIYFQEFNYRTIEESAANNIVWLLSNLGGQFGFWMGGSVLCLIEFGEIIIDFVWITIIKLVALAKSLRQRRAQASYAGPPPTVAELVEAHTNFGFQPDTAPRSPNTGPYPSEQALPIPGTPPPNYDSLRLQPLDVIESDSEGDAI
T2 sequence (P51170 1-138): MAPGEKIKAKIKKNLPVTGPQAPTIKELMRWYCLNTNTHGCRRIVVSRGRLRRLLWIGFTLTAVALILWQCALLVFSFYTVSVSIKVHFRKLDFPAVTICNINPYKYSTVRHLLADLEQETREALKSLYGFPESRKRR
T2 sequence (P51170 182-649): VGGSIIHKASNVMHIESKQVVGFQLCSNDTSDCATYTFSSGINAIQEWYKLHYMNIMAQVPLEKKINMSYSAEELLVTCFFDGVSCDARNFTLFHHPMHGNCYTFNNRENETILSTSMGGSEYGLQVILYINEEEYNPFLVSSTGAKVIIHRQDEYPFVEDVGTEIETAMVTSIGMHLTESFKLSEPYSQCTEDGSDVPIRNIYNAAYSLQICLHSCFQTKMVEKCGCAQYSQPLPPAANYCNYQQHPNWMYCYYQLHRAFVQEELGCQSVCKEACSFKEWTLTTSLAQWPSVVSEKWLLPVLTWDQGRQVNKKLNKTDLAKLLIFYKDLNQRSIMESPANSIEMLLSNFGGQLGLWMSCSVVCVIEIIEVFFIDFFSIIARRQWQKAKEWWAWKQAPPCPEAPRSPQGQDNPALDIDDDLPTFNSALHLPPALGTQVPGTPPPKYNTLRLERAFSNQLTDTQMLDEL

αRtripleAβγ = molecular target: T3, αRtripleAβγ (Mus musculus, UniProt Q61180+Q9WU38+Q9WU39, R205A/R208A/R231A); assay: Two-electrode voltage clamp in oocytes expressing channels lacking furin cleavage of the α subunit; format: cell-based; conditions: 1 μM α-26
T3 construct: expressed in transfected cells; host or cells: Xenopus laevis oocytes (cRNA injection)
T3 sequence (Q61180 1-699 R205A/R208A/R231A): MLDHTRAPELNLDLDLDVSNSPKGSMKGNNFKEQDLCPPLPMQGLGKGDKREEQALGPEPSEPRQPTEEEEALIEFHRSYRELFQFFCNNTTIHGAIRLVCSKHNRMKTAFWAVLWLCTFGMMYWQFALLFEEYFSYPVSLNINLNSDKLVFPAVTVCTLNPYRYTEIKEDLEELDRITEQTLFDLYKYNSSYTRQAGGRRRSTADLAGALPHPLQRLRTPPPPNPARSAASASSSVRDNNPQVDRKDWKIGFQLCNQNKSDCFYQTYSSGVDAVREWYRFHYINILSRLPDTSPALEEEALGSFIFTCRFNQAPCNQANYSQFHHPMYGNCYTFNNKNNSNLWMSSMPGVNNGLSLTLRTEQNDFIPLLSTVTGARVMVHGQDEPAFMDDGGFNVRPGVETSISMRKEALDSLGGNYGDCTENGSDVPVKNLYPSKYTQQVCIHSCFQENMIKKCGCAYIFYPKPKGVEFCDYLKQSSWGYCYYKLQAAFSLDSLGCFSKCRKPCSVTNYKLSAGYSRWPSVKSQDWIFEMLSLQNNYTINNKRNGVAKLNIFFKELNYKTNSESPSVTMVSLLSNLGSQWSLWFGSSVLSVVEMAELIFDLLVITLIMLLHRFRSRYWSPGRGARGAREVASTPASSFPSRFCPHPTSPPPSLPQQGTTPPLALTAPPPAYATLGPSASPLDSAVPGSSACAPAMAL
T3 sequence (Q9WU38 1-638): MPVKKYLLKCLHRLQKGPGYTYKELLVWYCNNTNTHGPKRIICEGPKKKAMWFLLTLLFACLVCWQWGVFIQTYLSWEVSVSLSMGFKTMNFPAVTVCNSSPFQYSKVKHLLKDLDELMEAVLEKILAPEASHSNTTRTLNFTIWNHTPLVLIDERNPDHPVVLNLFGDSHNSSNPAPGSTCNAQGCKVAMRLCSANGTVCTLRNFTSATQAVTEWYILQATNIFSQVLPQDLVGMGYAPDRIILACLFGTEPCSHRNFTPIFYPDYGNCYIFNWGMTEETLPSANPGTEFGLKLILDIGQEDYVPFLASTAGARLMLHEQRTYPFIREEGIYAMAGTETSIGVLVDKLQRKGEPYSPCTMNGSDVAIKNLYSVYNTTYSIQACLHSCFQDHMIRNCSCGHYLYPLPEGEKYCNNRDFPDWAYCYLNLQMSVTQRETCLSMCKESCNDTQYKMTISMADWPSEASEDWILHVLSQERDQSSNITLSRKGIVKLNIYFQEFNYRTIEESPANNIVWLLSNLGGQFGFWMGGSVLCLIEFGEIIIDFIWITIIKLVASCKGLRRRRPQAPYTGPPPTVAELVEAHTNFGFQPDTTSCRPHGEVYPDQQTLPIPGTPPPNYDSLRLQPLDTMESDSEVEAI
T3 sequence (Q9WU39 1-655): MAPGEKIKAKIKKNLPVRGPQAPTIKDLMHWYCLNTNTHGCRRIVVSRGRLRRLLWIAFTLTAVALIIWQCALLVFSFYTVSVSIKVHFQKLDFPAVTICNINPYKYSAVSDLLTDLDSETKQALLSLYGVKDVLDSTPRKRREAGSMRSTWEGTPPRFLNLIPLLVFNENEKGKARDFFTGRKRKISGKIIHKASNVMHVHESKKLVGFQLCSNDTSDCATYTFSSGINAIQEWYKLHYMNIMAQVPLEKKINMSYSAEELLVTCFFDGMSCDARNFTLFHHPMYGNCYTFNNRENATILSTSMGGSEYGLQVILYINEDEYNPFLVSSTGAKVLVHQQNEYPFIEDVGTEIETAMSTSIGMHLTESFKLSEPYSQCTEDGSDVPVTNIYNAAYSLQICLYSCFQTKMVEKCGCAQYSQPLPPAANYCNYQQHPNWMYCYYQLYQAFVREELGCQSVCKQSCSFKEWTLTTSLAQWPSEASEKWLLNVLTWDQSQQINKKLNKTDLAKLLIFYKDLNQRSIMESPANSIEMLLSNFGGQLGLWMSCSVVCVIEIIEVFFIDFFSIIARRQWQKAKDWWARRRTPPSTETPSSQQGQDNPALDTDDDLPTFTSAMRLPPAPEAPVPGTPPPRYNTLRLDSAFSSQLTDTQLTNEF
From the text: Oocyte Expression—cRNAs for α, β, γ mouse ENaC (wild-type and mutant) subunits and mouse prostasin were synthesized with T3 or T7 m-Message mMachineTM (Ambion, Austin, Tex.). Subunits carrying furin cleavage consensus site mutations and the corresponding wild-type subunits have amino-terminal HA and carboxyl-terminal V5 tags (Hughey, R. P., Bruns, J. B., Kinlough, C. L., Harkleroad, K. L., Tong, Q., Carattino, M. D., Johnson, J. P., Stockand, J. D., and Kleyman, T. R. (2004) J. Biol. Chem. 279, 18111-18114 18). Stage V-VI Xenopus laevis oocytes were pretreated with 1.5 mg/ml of type IV collagenase and injected with 0.5-2 ng of cRNA/subunit. Injected oocytes were maintained as previously reported (Carattino, M. D., Hill, W. G., and Kleyman, T. R. (2003), Arachidonic Acid Regulates Surface Expression of Epithelial Sodium Channels, J Biol. Chem. 278, 36202-36213 29).
Two-electrode Voltage Clamp—Two-electrode voltage clamp (TEV) was performed as previously described (Carattino, M. D., Hill, W. G., and Kleyman, T. R. (2003) J Biol. Chem. 278, 36202-36213 29). The extracellular solution (TEV solution) was (in mM): 110 NaCl, 2 KCl, 1.54 CaCl2, 10 HEPES, pH 7.4, or otherwise as indicated. […] ENaC-mediated whole cell Na^+ currents, at −60 mV,were defined as the amiloride-sensitive component of the current. […]

Ac-DLRGALPHPLQRLRTPPPPNPARSAR-NH2 [α-26]
pIC50 [1]: 4.00 to 4.30
pIC50 [2]: 4.00 to 4.30
block of channels (αRtripleAβγ): does not block; also recorded: not blocked
